{"source": "patent US9539238B2", "about": "“Pharmaceutical composition comprising a biguanide derivative as an active ingredient for preventing or treating glioblastoma” (ImmunoMet Therapeutics, Inc., priority 2015, dated 2017)", "key": {"stem cell": {"system": "stem cell", "experiment": "MTT cell viability assay", "type": "cell-based", "settings": "treated for 5 days, sublethal dose", "procedure": "The effect of HL156A, TMZ, and combined HL156A and temozolomide on the survival of cells was determined by 3-(4,5-dimethylthiazol-2-yl)-2,5-diphenyl tetrazolium bromide (MTT) assay. Cells were seeded in 96-well plates and incubated at 37° C. for 24 hours and treated with HL156A, TMZ, and the combination thereof for 5 days. MTT reagent (10 μl/well) was added, incubated at 37° C. for 4 hours and the absorbance was measured at 490 nm. Each experiment was repeated three times and the results were expressed as % viable cells over control."}, "[1]": {"system": "AMPK and mTOR pathway of GSC11 and X01 cells", "experiment": "Western blotting of AMPK-mTOR pathway-related proteins", "type": "cell-based, human", "procedure": "(§1) For Western blotting, 20 μg total protein from each sample was treated with Laemmli sample buffer and heated at 100° C. for 5 minutes. This was then loaded into each well and was resolved by 8% SDS-polyacrylamide gel electrophoresis (PAGE) and eleetroblotted onto nitrocellulose membranes (GE Healthcare life-Sciences). Membranes were blocked in 5% non-fat dry milk in TBS-T, and incubated with antibodies for AMPK-mTOR pathway-related proteins, stemness markers, and EMT-related markers overnight at 4° C., and then probed with peroxidase-conjugated goat anti-rabbit IgG (1:2000, santa cruz) for 1 hour at room temperature. The washes were repeated and the membrane was developed with a chemiluminescent agent (ECL; Amersham Life Science, Inc.). Band densities were measured using TINA image software (Raytest, Straubenhardt, Germany)."}, "GSC11 and X01 cells": {"system": "GSC11 and X01 cells", "experiment": "Neurosphere formation assay", "type": "cell-based, human", "settings": "GSC11 and X01, cultured for 3 weeks", "procedure": "For Neurosphere formation assay, the GSC11 and X01 cells were cultured in medium consisting of DMEM/F-12 with 2% 1×B27, 20 ng/ml 0.02% bFGF, 20 ng/ml 0.02% EGF, and 1% antibiotic-antimycotic solution (100×, Gibco, Invitrogen Korea, Seoul, South Korea). The cells were cultured in different conditions for 3 weeks. […] Photographs of cells were obtained with a digital camera (DP70 Digital Microscope Camera; Olympus), using DP Controller software (Olympus)."}, "[2]": {"system": "stemness markers such as nestin, CD133, Sox-2, Notch 1, Notch 2, and Oct3/4 in GSC11 or X01", "experiment": "Western blotting of stemness markers", "type": "cell-based, human", "procedure": "as §1"}, "GSC11 and X01": {"system": "GSC11 and X01", "experiment": "Neuro-glial differentiation (neuronal marker expression)", "type": "cell-based, human"}, "G-GSC11 spheroids": {"system": "G-GSC11 spheroids", "experiment": "3D collagen I matrix invasion assay", "type": "cell-based, human", "procedure": "The G-GSC11s grown in spheroid were cultured in collagen I matrices using polydimethylsiloxane (PDMS)-based micro-wells (diameter and depth of microwells: […] and 500 μm). The microwells were treated with a 1% poly(ethyleneimine) (Sigma-Aldrich, St. Louis, Mo., USA) solution for 10 minutes followed by 0.1% glutaraldehyde (Sigma-Aldrich, St. Louis, Mo., USA) for 30 minutes and washed with PBS overnight lo make PDMS wells adherent to collagen. The 4 mg/ml collagen I matrices are prepared from high-concentration rat tail collagen I (BD Bioscience, CA, USA) using the recommended manual provided by the manufacturer. Briefly, the amounts of 10× phosphate buffered saline (PBS), 1N NaOH, sterile dH2O, and collagen I were mixed to create gels based on the desired final concentration. The solution was well mixed and kept at 4° C. before use. To encapsulate G-GSC11 spheroid, 10 μl of a collagen I solution (4 mg/ml) were pipetted into the micro-well, single G-GSC11 spheroid was placed onto collagen I matrices from the culture plate, and 10 μl of a collagen I solution (4 mg/ml) was dropped onto G-GSC11 spheroid. The platform was incubated at 37° C. and 5% CO2 for 30 minutes. The cell viability was characterized by staining G-GSC11 spheroid with 8 μM Ethidium homodimer-1 (Invitrogen Korea, Seoul, South Korea) for 30 minutes at 37° C. before implantation in collagen matrix. After fall gelation, a superlayer of culture medium consisting of DMEM/F-12 with 2% 1×B27, 20 ng/ml 0.02% bFGF, 20 ng/ml 0.2% EGF, and 1% antibiotic-antimycotic solution (100× Gibco, Invitrogen Korea, Seoul, South Korea) was then added. To observe drug effects, drugs were mixed with medium considering the final concentration of each drug. […] To quantitate the invasion assay, the maximal area covered by migrating edges of cells was used as a parameter for defining invasiveness (invaded area at certain time/spheroid area at initial time×100). Data was analyzed through image analysis software ImageJ (NIH, Bethesda, Md., USA)."}, "[3]": {"system": "EMT-related markers such as β-catenin, zeb1, N-cadherin, and snail", "experiment": "Western blotting of EMT-related markers", "type": "cell-based, human", "settings": "tumorspheres", "procedure": "as §1"}, "GSC11": {"system": "GSC11", "experiment": "18F-FDG uptake (cellular metabolism)", "type": "cell-based, human", "settings": "15 minutes incubation, radioactivity normalized to protein content", "procedure": "In order to assess the effect of drugs on the cellular metabolism, ^18F-FDG uptake was examined, GSC11 were plated on 12-well plates with 3×10^5 cells per well for 24 hours. The medium was changed to a glucose-free DMEM medium (Gibco, Invitrogen Korea, Seoul, South Korea) containing approximately 0.5 μCi of ^18F-FDG, followed by incubation for 15 minutes. The cells were washed with phosphate-buffered saline 3 times and 0.1 ml of lysis buffer was added to each well. The lysed cells were then harvested to measure the amount of radioactivity by Wallac 148 Wizard 3 gamma-counter (PerkinElmer Life and, Analytical Science, Shelton, Conn., USA). The radioactivity measured was normalized to protein content."}, "[4]": {"system": "GSC11 orthotopic xenograft", "experiment": "Orthotopic xenograft mouse model", "type": "in vivo, male athymic nude mice", "settings": "stained tumors", "procedure": "Finally, the effect of the drags on the tumors of orthotopic xenograft mice was analyzed, 4- to 8-week-old male athymic nude mice (Central Lab. Animal Inc., Seoul, South Korea) were used for experiments. Mice were housed in micro-isolator cages under sterile conditions and observed for at least 1 week before study initiation to ensure proper health. Lighting, temperature, and humidity were controlled centrally. All experimental procedures were approved by Yonsei University College of Medicine Institutional Animal Care and Use Committee. Mice were anesthetized with a solution of Zoletil® (30 mg/kg; Virbac Korea, Seoul, South Korea) and xylazine (10 mg/kg; Bayer Korea, Seoul, South Korea) delivered intraperitoneally. GSC11 were implanted into the right frontal lobe of nude mice using a guide-screw system within the skull. Mice received 5×10^5 cells via a Hamilton syringe (Dongwoo Science Co., Seoul, South Korea) inserted to a depth of 4.5 mm. Then, 15 mg/kg of HL156A, 66.6 mg/kg of TMZ, and their combination were administrated to mice (n=5 per group). HL156A was given to mice by oral administration every other day until the duration of the experiment and TMZ was administrated intraperitoneally, for 5 days from the day of tumorsphere injection. The body weight of mice was checked every other day. […]"}}, "note": "“Also recorded” adds a separate entry of the source."}
{"smiles": "N=C(NC(=N)N1CCCC1)Nc1ccc(OC(F)(F)F)cc1", "note": "[HL156A, N—(N-(4-(trifluoromethoxy)phenyl)carbamimidoyl)pyrrolidine-1-carboximidamide]", "values": [{"measurement": "cell viability (% viable cells over control)", "setting": "stem cell", "value": "minimal effect"}, {"measurement": "AMPK activation and consequent mTOR inhibition", "setting": "[1]", "value": "did not show expected AMPK activation"}, {"measurement": "number of neurospheres", "setting": "GSC11 and X01 cells", "value": "markedly decreased"}, {"measurement": "expression of stemness markers (CD133, OCT 3/4, Sox-2, Notch 1, Notch 2)", "setting": "[2]", "value": "Decreased expression"}, {"measurement": "neuro-glial differentiation (expression of olig2, Tuj1, GFAP)", "setting": "GSC11 and X01", "value": "did not promote"}, {"measurement": "cell viability during the invasion experiment", "setting": "G-GSC11 spheroids", "value": "no significant cell death"}, {"measurement": "invasiveness", "setting": "G-GSC11 spheroids; implanted cells and drugs together (FIG. 3A)", "value": "decreased invasiveness; also recorded: lesser degree of invasiveness"}, {"measurement": "invasiveness", "setting": "G-GSC11 spheroids; pre-implanted, drug treatment 12 hours after implantation (FIG. 3B)", "value": "decreased invasiveness"}, {"measurement": "expression of β-catenin, zeb1, and N-cadherin (EMT-related markers)", "setting": "[3]", "value": "altered; also recorded: diminished"}, {"measurement": "18F-FDG uptake", "setting": "GSC11", "value": "markedly decreased"}, {"measurement": "tumor margin versus control", "setting": "[4]", "value": "less irregular margin"}]}
